# Reference: article PMC7136958, “Targeting the pregnane X receptor using microbial metabolite mimicry” (EMBO Molecular Medicine, 2020)
# Where “and” joins values, the source holds several entries; their conditions need not be identical. Identical values can stand only once.
# What was measured:
# [1] = tested on: S. typhimurium 14038; assay: Salmonella invasion in iPSC-derived human intestinal organoids; format: cell-based, Salmonella typhimurium; conditions: for salmonella invasion vs cytokines alone: 2, 4, 6, 12 h; for basal salmonella invasion: 10 and 25 μM; for Salmonella CFU/ml: HIO, triplicate
# Method: FKK compounds were tested for their ability to prevent Salmonella invasion in vitro in non‐inflamed and inflamed cell cultures. Overnight cultures of S. typhimurium 14038 were diluted to OD600 0.01 and injected into with HIOs or immersed over Caco‐2 monolayers for 1 h at 37°C. The invasive ability of Salmonella was assessed using the gentamicin protection assay (Gagnon et al, 2013). Bacterial adhesion scenarios to the Caco‐2 surface were set up as described above. Non‐adhered bacteria were removed by washing twice in PBS, followed by incubation with 1 ml gentamicin (150 μg/ml in DMEM) for 1 h at 37°C to kill the adhered extracellular bacteria. Dead bacteria were removed by washing twice in PBS, followed by incubation with 500 μl 0.1% Triton X‐100 for 15 min at 37°C to lyse the HIOs and Caco‐2, and release the intracellular (invaded) bacteria. Serial fold dilutions and plating were then employed to determine CFU/ml. We normalized to total protein using Bradford assay.
# [2] = tested on: IL-8 mRNA in Caco-2 cells; assay: IL-8 mRNA in Caco-2 monolayers exposed to cytokine cocktail; format: cell-based, human; design: key to IL8 mRNA: relative IL-8 mRNA level, normalized to GAPDH; conditions: for IL8 mRNA: Caco-2 cells, triplicate
# Method: Caco‐2 cell (ATCC, Manassas, VA) passages 25–35 were maintained and expanded in culture flasks in Dulbecco's modified Eagle's medium (DMEM) with 10% FBS and 1× antibiotic–antimycotic. The cells were kept in a humidified 37°C incubator with 5% CO2. Media were changed every 2–3 days, and cells were passaged 1–2 times a week. For all experiments, Caco‐2 cells (5 × 10^4 cells/ml) were seeded into 12‐well Transwell inserts or coverslips and cultured for 3 weeks. HIOs were generated from iPSCs as described previously (Spence et al, 2011), with some modifications. The iPSC cell line IISH1i‐BM1 (WiCell, Madison, WI) was cultured on Matrigel plates to 80% confluence in mTeSR™ 1 medium (Stem Cell Technologies, Seattle, WA) and differentiated to endoderm using Definitive Endoderm Kit (Stem Cell Technologies., Seattle, WA) for 4 days with daily media changes. Endoderm was then differentiated to hindgut for 5 days with the addition of FGF‐4 (500 ng/ml; Peprotech, Rocky Hill, NJ) and Chir99021 (3 μM; Cayman, Ann Arbor, MI) in RPMI media supplemented with 2% FBS. Floating hindgut spheroids were collected on days 3–5 of hindgut differentiation and suspended in Matrigel beads for HIO differentiation. HIOs were maintained in WENRAS media (Fujii et al, 2015), which maintains proliferation in the culture. Stock HIOs were passaged weekly by removing Matrigel with Cell Recovery Solution (Corning, NY) and mechanically breaking up organoids with pipetting. HIOs were seeded into new Matrigel beads at a 1:3 split, using WENRAS with added Rock Inhibitor Y‐27632 (10 μM) and Chir99021 (3 μM; Cayman., Ann Arbor, MI) for the first 2 days of culture.
# Relative mRNA levels of IL‐8 and IL‐6 were determined using quantitative real‐time PCR, with normalization to GAPDH. RNA was isolated using an RNeasy Mini Kit (Qiagen) as per the manufacturer's instructions. On column DNase (Qiagen) was used to remove any contaminating DNA. Next, cDNA was formed using iScript cDNA Synthesis Kit (Bio‐Rad) and 100 ng RNA. qRT–PCR was performed with SsoAdvanced Universal SYBR Green Kit (Bio‐Rad). The following primers were used: IL‐8 Forward: […]; IL‐8 Reverse: […]; IL‐6 Forward: […]; IL‐6 Reverse: […]; GAPDH Forward: […]; GAPDH Reverse: […]. For immunofluorescent staining of NF‐ĸB translocation to the cell nucleus, HIOs and Caco‐2 cell monolayers were fixed in 4% formaldehyde (in 1 × PBS) overnight at 4°C. The formaldehyde was removed by washing with 1 × PBS, and an antigen retrieval step was performed by incubating in 10 mM sodium citrate buffer in a vegetable steamer for 20 min. The samples were then blocked with normal donkey serum (10% in PBS with 0.3% Triton X‐100) for 1 h. Samples were incubated overnight with primary antibodies: rabbit anti‐NF‐κB p65 (D14E12 # 8242, 1:400 dilution, Cell Signaling Technology, Danvers MA), then immersed in Alexa Fluor® 555 donkey anti‐rabbit secondary antibody (A‐31572, Life Technologies) at a 1:500 dilution. Nuclei were stained with Hoechst 33342 (Life Technologies). The samples were then imaged using a Zeiss LSM880 Confocal/Multiphoton Upright Microscope, with 3‐D image rendering using Volocity. For controls, normal rabbit IgG (#2729S, Life Technologies) was used.
# [3] = tested on: CYP1A1, CYP3A4, MDR1 mRNA in primary human hepatocytes; assay: qRT-PCR of CYP1A1, CYP3A4, MDR1 mRNA in primary human hepatocytes (four donors); conditions: for CYP1A1 mRNA fold to C / CYP3A4 mRNA fold to C / MDR-1 mRNA fold to C: primary human hepatocytes donor Hep200538, fold to UT control; for CYP1A1 mRNA fold to C / CYP3A4 mRNA fold to C / MDR-1 mRNA fold to C / CYP1A1 (1A1) mRNA, fold to C / CYP3A4 (3A4) mRNA, fold to C / MDR1 mRNA fold to C / MDR-1 mRNA, fold to C: normalised to GAPDH; for CYP1A1 (1A1) mRNA, fold to C / CYP3A4 (3A4) mRNA, fold to C / MDR1 mRNA fold to C / MDR-1 mRNA, fold to C: primary human hepatocytes, fold vs untreated (UT)
# Method: Cells or primary human hepatocytes from four different donors (HEP200529, HEP220932, HEP200533, and HEP200538) were incubated for 24 h with test compounds; the vehicle was DMSO (0.1% v/v). Total RNA was isolated using TRI Reagent® (Molecular Research Center, Ohio, USA). cDNA was synthesized from 1,000 ng of total RNA using M‐MuLV Reverse Transcriptase (New England Biolabs, Ipswich, Massachusetts, USA) at 42°C for 60 min in the presence of random hexamers (New England Biolabs). Quantitative reverse transcriptase–polymerase chain reaction (qRT–PCR) was performed using LightCycler® 480 Probes Master on a LightCycler® 480 II apparatus (Roche Diagnostic Corporation).
# The following protocol was used: An activation step at 95°C for 10 min was followed by 45 cycles of PCR (denaturation at 95°C for 10 s; annealing with elongation at 60°C for 30 s). The measurements were performed in triplicate. Gene expression was normalized per GAPDH as a housekeeping gene. […] Data are expressed as fold induction ± SD over the vehicle‐treated cells. The bar graph depicts one representative experiment of a series of experiments performed in three consecutive passages of cells. Differences were tested using one‐way ANOVA with Dunnett's post hoc test, and P < 0.05 was considered significant.
# [4] = target: T1, FXR (Homo sapiens, UniProt Q96RI1); assay: hFXR TR-FRET (LanthaScreen FXR Coactivator Assay); format: biochemical; conditions: 1 nM to 25 µM
# T1 construct: purchased Invitrogen PV4833
# T1 sequence (Q96RI1 211-486 limits assumed): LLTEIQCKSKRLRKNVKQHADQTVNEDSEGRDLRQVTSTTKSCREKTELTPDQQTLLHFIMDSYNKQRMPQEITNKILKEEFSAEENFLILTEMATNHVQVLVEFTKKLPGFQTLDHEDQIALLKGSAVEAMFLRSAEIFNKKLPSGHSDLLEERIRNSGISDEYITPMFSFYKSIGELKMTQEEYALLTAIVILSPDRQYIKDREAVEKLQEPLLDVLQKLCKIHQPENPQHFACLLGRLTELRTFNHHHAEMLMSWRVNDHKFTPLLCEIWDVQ
# Method: volume of 20 µl in 384-well black plates, with concentrations of tested compounds in the range from 1
# nm, on Infinite F200 microplate reader (Tecan Group Ltd, Switzerland).
# All experiments were done in tetraplicates and as two independent experiments. Final EC50 values were obtained by processing the data with GraphPad Prism 6 using standard curve interpolation (sigmoidal, 4PL, variable slope).
# [5] = compound 10µm, no cytokines, 4 hr
# [6] = cytokines + compound 10µm, 2 hr
# [7] = cytokines + compound 10µm, 12 hr
# [8] = cytokines + compound 25µm, 2 hr
# [9] = compound 10µm, no cytokines, 12 hr
# [10] = compound 25µm, no cytokines, 2 hr
# [11] = cytokines + compound 25µm, 12 hr
Compound,salmonella invasion vs cytokines alone [1],basal salmonella invasion [1],"Salmonella CFU/ml [1, 5]","Salmonella CFU/ml [1, 7]","IL8 mRNA [2, 10]","IL8 mRNA [2, 6]",CYP1A1 mRNA induction ([3]; four donors),CYP1A1 mRNA fold to C [3],CYP3A4 mRNA fold to C [3],MDR-1 mRNA fold to C [3],"CYP1A1 (1A1) mRNA, fold to C ([3]; donor Hep200529)","CYP3A4 (3A4) mRNA, fold to C ([3]; donor Hep200529)",MDR1 mRNA fold to C ([3]; donor Hep200529),"CYP1A1 (1A1) mRNA, fold to C ([3]; donor Hep200533)","CYP3A4 (3A4) mRNA, fold to C ([3]; donor Hep200533)","MDR-1 mRNA, fold to C ([3]; donor Hep200533)","CYP1A1 (1A1) mRNA, fold to C ([3]; donor Hep220932)","CYP3A4 (3A4) mRNA, fold to C ([3]; donor Hep220932)","MDR-1 mRNA, fold to C ([3]; donor Hep220932)",FXR ligand agonist activity [4],also measured
C#CCC(O)(c1ccncc1)c1cc2ccccc2n1S(=O)(=O)c1ccccc1 (stereo not shown) [FKK6],significantly reduced,no significant effect,370 CFU/ml and 296 CFU/ml and 591 CFU/ml,362 CFU/ml and 381 CFU/ml and 340 CFU/ml,55.8723 and 30.5592 and 31.4544,40.0864 and 49.4401 and 49.4954,did not,15.94,6.17,0.95,6.44 fold,2.67 fold,1.52 fold,3.26 fold,2.13 fold,2.03 fold,0.76 fold,0.97 fold,0.40 fold,did not observe any significant ligand agonist activity,"Salmonella CFU/ml ([1]; compound 25µm, no cytokines, 6 hr): 277 CFU/ml and 280 CFU/ml and 238 CFU/ml; Salmonella CFU/ml [1, 6]: 234 CFU/ml and 133 CFU/ml and 134 CFU/ml; Salmonella CFU/ml [1, 8]: 193 CFU/ml and 132 CFU/ml and 164 CFU/ml; Salmonella CFU/ml ([1]; cytokines + compound 25µm, 4 hr): 200 CFU/ml and 140 CFU/ml and 164 CFU/ml; Salmonella CFU/ml ([1]; cytokines + compound 25µm, 6 hr): 189 CFU/ml and 151 CFU/ml and 140 CFU/ml; cytokine-induced IL-8 mRNA ([2]; 25 μM): significantly reduced; IL8 mRNA ([2]; compound 10µm, no cytokines, 2 hr): 2.554 and 1.974 and 1.5894; IL8 mRNA [2, 9]: 7.6 and 8.533 and 8.223; IL8 mRNA [2, 7]: 83.1628 and 71.3481 and 97.9287; CYP3A4 mRNA induction ([3]; four donors): more than twofold induction in one of four hepatocyte samples; MDR1 mRNA induction ([3]; four donors): MDR1 mRNA induction in one of four hepatocyte samples"
"O=C(c1ccncc1)c1cc2ccccc2n1S(=O)(=O)c1ccccc1 [FKK5, (1-(phenylsulfonyl)-1H-indol-2-yl)(pyridin-4-yl)methanone]",significantly reduced,no significant effect,557 CFU/ml and 514 CFU/ml and 578 CFU/ml,459 CFU/ml and 469 CFU/ml and 548 CFU/ml,11.5603 and 13.1808 and 10.1297,168.69 and 99.441 and 183.41,did not,1.13,0.84,0.52,1.12 fold,0.73 fold,0.93 fold,1.51 fold,1.03 fold,1.05 fold,0.39 fold,0.50 fold,0.35 fold,did not observe any significant ligand agonist activity,"Salmonella CFU/ml [1, 9]: 447 CFU/ml and 508 CFU/ml and 480 CFU/ml; Salmonella CFU/ml [1, 11]: 474 CFU/ml and 339 CFU/ml and 439 CFU/ml; IL8 mRNA [2, 8]: 36.3596 and 45.4346 and 54.4045; IL8 mRNA [2, 11]: 434.784 and 305.562 and 246.223"
